One assay deals with wild-type HCT-116 cells. The experiment in a line: Cell proliferation (MTS), wild-type HCT-116. Particulars: Homo sapiens, 240 h; wild-type HCT-116, 10 days with compound, MTS reading; read-out: IC50 HCT116 WT. Type of assay: cell-based. On the procedure:
(§1) MTAP^-/- HCT-116 and wild-type HCT-116 cell strains were cultured in complete medium McCoy's 5A (Gibco, 16600082)/10% FBS (Gibco, 10099141C)/1% p/s (Gibco, 15140122) to evaluate the enhanced inhibitory effect of the compounds against the proliferation selectivity of MTAP^-/- HCT-116 cells. On day 0, MTAP^-/- HCT-116 cells or wild-type HCT-116 cells were added to a 96-well cell culture plate (Corning, 3599) at 100 cells/well, and the plate was incubated in an incubator at 37 °C with 5% CO2. The compound was diluted in a 3-fold gradient with DMSO (Sigma, D5879) (initial concentration: 20 µM, 3-fold dilution, 8 concentration points in total). On day 1, the compound was diluted to multiple concentration points, and the cells were treated separately and incubated in the incubator at 37 °C with 5% CO2 for another 10 days. On Day 11, 20 µL of MTS (CellTiter 96® AQueous One Solution Cell Proliferation Assay) (Promega, G3581) was added to each well. […] In the formula, Y represents the inhibition rate, X represents the logarithm of the compound concentration, Top represents the maximum response (the inhibition rate at the maximum compound concentration), Bottom represents the baseline response (the inhibition rate where the compound concentration was 0), Hill Slope represents the slope of the IC50 curve, and IC50 represents the half maximal inhibitory concentration. Table 1. IC50 (µM)

In a further assay the test system is MTAP^-/- HCT-116 cells. The assay can be described thus: Cell proliferation (MTS), MTAP-/- HCT-116. The assay is classed as cell-based, human. To be noted: for Selectivity: HCT116 WT IC50 relative to HCT116 MTAP-/- IC50; for pIC50: Homo sapiens, 240 h, MTAP-/- HCT-116, 10 days with compound, MTS reading, read-out: IC50 HCT116 MTAP-/-.
Source text: The colon cancer cell strain HCT-116 (purchased from Nanjing Cobioer) was co-transfected with the gene editing tool CRISPR/Cas9 and sgRNA, and the MTAP^-/- HCT-116 cell strain with biallelic inactivation of MTAP was obtained by assays such as Western Blotting and Sanger sequencing. The MTAP^-/- HCT-116 cell strain was used for compound selectivity screening and evaluation based on the synergistic mechanism of MTAP deletion and PRMT5, including a symmetric dimethylarginine (SDMA) level test, a cell proliferation test, and the like.
as §1, with “On” for “MTAP^-/- HCT-116 and wild-type HCT-116 cell strains were cultured in complete medium McCoy's 5A (Gibco, 16600082)/10% FBS (Gibco, 10099141C)/1% p/s (Gibco, 15140122) to evaluate the enhanced inhibitory effect of the compounds against the proliferation selectivity of MTAP^-/- HCT-116 cells. On”, “concentration.” for “concentration. Table 1. IC50 (µM)”

SMILES strings stand for the structures. pIC50: −log10 of the molar value.

With `CN(C(=O)c1ccc2nc(N)c3c(c2c1)COC3)C1COc2cc(C#Cc3cnn(C)c3)ccc21` (racemic) [Compound 3, 4-amino-N-methyl-N-(6-((1-methyl-1H-pyrazol-4-yl)ethynyl)-2,3-dihydrobenzofuran-3-yl)-1,3-dihydrofuran[3,4-c]quinoline-8-carboxamide], the pIC50 with wild-type HCT-116 cells was 5.37. In the assay with MTAP^-/- HCT-116 cells, the Selectivity is 160 and the pIC50 was 7.57.
Turning to `CN(C(=O)c1ccc2nc(N)c3cnn(C)c3c2c1)C1COc2cc(C#Cc3cnn(C)c3)ccc21` (stereo not drawn) [Compound 1, 4-amino-N,1-dimethyl-N-(6-((1-methyl-1H-pyrazol-4-yl)ethynyl)-2,3-dihydrobenzofuran-3-yl)-1H-pyrazolo[4,3-c]quinoline-8-carboxamide], the pIC50 in the assay on wild-type HCT-116 cells is 5.74. Further, in the assay on MTAP^-/- HCT-116 cells, the Selectivity turned out to be 140 and the pIC50 is 7.89.
For the molecule `Cn1cc(C#Cc2ccc3c(c2)OCC3N(C(=O)c2ccc3nc(N)c4cnn(C)c4c3c2)C2CC2)cn1` (stereo not drawn) [Compound 2, 4-amino-N-cyclopropyl-1-methyl-N-{6-[(1-methylpyrazol-4-yl)ethynyl]-2,3-dihydro-1-benzofuran-3-yl}pyrazolo[4,3-c]quinoline-8-carboxamide], the pIC50 was 5.99 in the assay on wild-type HCT-116 cells and 7.86 in the assay on MTAP^-/- HCT-116 cells. Moreover, the Selectivity in the assay with MTAP^-/- HCT-116 cells is 74.
For the molecule `CN(C(=O)c1cc2c(cc1F)nc(N)c1cnn(C)c12)C1COc2cc(C#Cc3cnn(C)c3)ccc21` (stereo not drawn) [Compound 5, 4-amino-7-fluoro-N,1-dimethyl-N-(6-((1-methyl-1H-pyrazol-4-yl)ethynyl)-2,3-dihydrobenzofuran-3-yl)-1H-pyrazolo[4,3-c]quinoline-8-carboxamide], the pIC50 with wild-type HCT-116 cells is 6.23. In the assay on MTAP^-/- HCT-116 cells, the Selectivity is given as 97 and the pIC50 was 8.22.
As for `CN1CC=C(C#Cc2ccc3c(c2)OCC3N(C)C(=O)c2ccc3nc(N)c4cnn(C)c4c3c2)CC1` (stereo not drawn) [Compound 6, 4-amino-N,1-dimethyl-N-(6-((1-methyl-1,2,3,6-tetrahydropyridin-4-yl)ethynyl)-2,3-dihydrobenzofuran-3-yl)-1H-pyrazolo[4,3-c]quinoline-8-carboxamide], the pIC50 was 5.56 with wild-type HCT-116 cells and 7.97 with MTAP^-/- HCT-116 cells. The Selectivity in the assay on MTAP^-/- HCT-116 cells was found to be 257.
Taken in the same sequence, the figures for `CCN(C(=O)c1ccc2nc(N)c3cnn(C)c3c2c1)C1COc2cc(C#Cc3cnn(C)c3)ccc21` (stereo not drawn) [Compound 7, 4-amino-N-ethyl-1-methyl-N-(6-((1-methyl-1H-pyrazol-4-yl)ethynyl)-2,3-dihydrobenzofuran-3-yl)-1H-pyrazolo[4,3-c]quinoline-8-carboxamide] were 6.23, 8.27 and 110.
In the case of `CN(C(=O)c1cc2c(cc1Cl)nc(N)c1cnn(C)c12)C1COc2cc(C#Cc3cnn(C4CC4)c3)ccc21` (stereo not drawn) [Compound 8, 4-amino-7-chloro-N-(6-((1-cyclopropyl-1H-pyrazol-4-yl)ethynyl)-2,3-dihydrobenzofuran-3-yl)-N,1-dimethyl-1H-pyrazolo[4,3-c]quinoline-8-carboxamide], the pIC50 in the assay with wild-type HCT-116 cells is 6.85. For the same molecule, in the assay on MTAP^-/- HCT-116 cells, the Selectivity came to 47 and the pIC50 was 8.52.
With `CC(C)n1cc(C#Cc2ccc3c(c2)OCC3N(C)C(=O)c2cc3c(cc2Cl)nc(N)c2cnn(C)c23)cn1` (stereo not drawn) [Compound 14, 4-amino-7-chloro-N-(6-((1-isopropyl-1H-pyrazol-4-yl)ethynyl)-2,3-dihydrobenzof uran-3-yl)-N,1-dimethyl-1H-pyrazolo[4,3-c]quinoline-8-carboxamide], in the assay with MTAP^-/- HCT-116 cells, the pIC50 was 8.05.
Regarding `CCn1cc(C#Cc2ccc3c(c2)OCC3N(C)C(=O)c2cc3c(cc2Cl)nc(N)c2cnn(C)c23)cn1` (stereo not drawn) [Compound 15, 4-amino-7-chloro-N-(6-((1-ethyl-1H-pyrazol-4-yl)ethynyl)-2,3-dihydrobenzofuran-3-yl)-N,1-dimethyl-1H-pyrazolo[4,3-c]quinoline-8-carboxamide], the pIC50 in the assay with MTAP^-/- HCT-116 cells was 8.32.
Regarding `Cc1nn(C)cc1C#Cc1ccc2c(c1)OCC2N(C)C(=O)c1cc2c(cc1Cl)nc(N)c1cnn(C)c12` (stereo not drawn) [Compound 26, 4-amino-7-chloro-N-(6-((1,3-dimethyl-1H-pyrazol-4-yl)ethynyl)-2,3-dihydrobenzofuran-3-yl)-N,1-dimethyl-1H-pyrazolo[4,3-c]quinoline-8-carboxamide], the pIC50 with MTAP^-/- HCT-116 cells is 8.55.
Turning to `Cc1nn(C)cc1C#Cc1ccc2c(c1)OC[C@H]2N(C)C(=O)c1cc2c(cc1Cl)nc(N)c1cnn(C)c12` [Compound 26A, (S)-4-amino-7-chloro-N-(6-((1,3-dimethyl-1H-pyrazol-4-yl)ethynyl)-2,3-dihydrobenzofuran-3-yl)-N,1-dimethyl-1H-pyrazolo[4,3-c]quinoline-8-carboxamide], the pIC50 in the assay on MTAP^-/- HCT-116 cells is 9.05.
Consider `CCN(C(=O)c1cc2c(cc1Cl)nc(N)c1cnn(C)c12)C1COc2cc(C#Cc3cnn(C)c3)ccc21` (stereo not drawn) [Compound 28, 4-amino-7-chloro-N-ethyl-1-methyl-N-(6-((1-methyl-1H-pyrazol-4-yl)ethynyl)-2,3-dihydrobenzofuran-3-yl)-1H-pyrazolo[4,3-c]quinoline-8-carboxamide], for which the pIC50 in the assay on MTAP^-/- HCT-116 cells was 8.64.
Turning to `CN(C(=O)c1cc2c3c(c(N)nc2cc1F)COC3)[C@@H]1COc2cc(C#Cc3cnn(C)c3)ccc21` [Compound 39A, (S)-4-amino-7-fluoro-N-methyl-N-(6-((1-methyl-1H-pyrazol-4-yl)ethynyl)-2,3-dihydrobenzofuran-3-yl)-1,3-dihydrofuro[3,4-c]quinoline-8-carboxamide], the pIC50 in the assay on MTAP^-/- HCT-116 cells is 7.96.
As to `CN1CCn2c(C#Cc3ccc4c(c3)OC[C@H]4N(C)C(=O)c3cc4c(cc3Cl)nc(N)c3cnn(C)c34)cnc2C1` [Compound 51A, (S)-4-amino-7-chloro-N,1-dimethyl-N-(6-((7-methyl-5,6,7,8-tetrahydroimidazo[1,2-a]pyrazin-3-yl)ethynyl)-2,3-dihydrobenzofuran-3-yl)-1H-pyrazolo[4,3-c]quinoline-8-carboxamide], the pIC50 with MTAP^-/- HCT-116 cells was 9.00.
The same measure, in the same setting: to `CN(C(=O)c1cc2c(cc1F)nc(N)c1cnn(C)c12)[C@@H]1COc2cc(C#Cc3cccnc3F)ccc21` [Compound 54A, (S)-4-amino-7-fluoro-N-(6-((2-fluoropyridin-3-yl)ethynyl)-2,3-dihydrobenzofuran-3-yl)-N,1-dimethyl-1H-pyrazolo[4,3-c]quinoline-8-carboxamide] belongs 8.26; to `Cc1ncccc1C#Cc1ccc2c(c1)OC[C@H]2N(C)C(=O)c1cc2c(cc1Cl)nc(N)c1cnn(C)c12` [Compound 64A, (S)-4-amino-7-chloro-N,1-dimethyl-N-(6-((2-methylpyridin-3-yl)ethynyl)-2,3-dihydrobenzofuran-3-yl)-1H-pyrazolo[4,3-c]quinoline-8-carboxamide], 8.52.
On to `CN(C(=O)c1cc2c(cc1F)nc(N)c1cnn(C)c12)C1COCc2cc(C#Cc3cnn(C)c3)ccc21` (stereo not drawn) [Compound 72, 4-amino-7-fluoro-N,1-dimethyl-N-(7-((1-methyl-1H-pyrazol-4-yl)ethynyl)isochroman-4-yl)-1H-pyrazolo[4,3-c]quinoline-8-carboxamide], for which, in the assay on MTAP^-/- HCT-116 cells, the pIC50 is 8.22.
For `CN(C(=O)c1cc2c3c(c(N)nc2cc1Cl)COC3)[C@@H]1COc2cc(C#Cc3cnn(C(F)F)c3)ccc21` [Compound 73A, (S)-4-amino-7-chloro-N-(6-((1-(difluoromethyl)-1H-pyrazol-4-yl)ethynyl)-2,3-dihydrobenzofuran-3-yl)-N-methyl-1,3-dihydrofuro[3,4-c]quinoline-8-carboxamide], the pIC50 in the assay on MTAP^-/- HCT-116 cells was 7.96.
Consider `CN(C(=O)c1cc2c(cc1F)nc(N)c1cnn(C)c12)[C@@H]1COc2cc(C#Cc3ccc(C4CC4)nc3)ccc21` [Compound 77A, (S)-4-amino-N-(6-((6-cyclopropylpyridin-3-yl)ethynyl)-2,3-dihyrobenzofuran-3-yl)-7-fluoro-N,1-dimethyl-1H-pyrazolo[4,3-c]quinoline-8-carboxamide], for which, in the assay on MTAP^-/- HCT-116 cells, the pIC50 was 7.96.

For the origin of these results see patent publication EP4755886A1 (Chengdu Chipscreen Pharmaceutical Ltd., priority 2023, dated 2025).
